Reference: patent US10617749B1, “Composition of matter and methods for alteration of dendritic cell metabolism to augment cancer vaccine efficacy” (Duke University, priority 2016, dated 2020)
Entries after “also recorded” stand apart in the source; their conditions may differ.

How the values were obtained:
[1] = system: OT-1 CD8+ T cells; experiment: T cell proliferation assay; format: cell-based, mouse; settings: SIINFEKL-loaded BMDCs co-incubated with OT-1 splenocytes
Protocol: Splenocytes of OT-1 mice (H-2^b) were isolated and stained with CellTrace Violet (ThermoFisher). Preconditioned DCs were loaded with ovalbumin peptide SIINFEKL, and co-cultured at a DC:splenocyte ratio of 40,000:120,000 cells for 72 hrs. CD8+ T cell proliferation was measured by the dilution of Cell Trace Violet dye by flow cytometry.

[2] = system: autochthonous BRAFV600EPTEN−/− melanoma; experiment: Autochthonous tumor study with adoptively transferred pretreated DCs; format: in vivo, transgenic mice
Protocol: B6.Cg-Braftm1Mmcm Ptentm1Hwu Tg(Tyr-cre/ERT2 H-2b)13Bos/BosJ (BRAFV600EPTEN−/−, H-2b), transgenic mice were subdermally injected with 4-HT (Sigma, 38.75 μg/mice) to induce primary melanoma development. Three days prior to 4-HT injection, 1×10^6 cells DCs pretreated with Wnt5a+/−ETO were washed and delivered by intra-dermal injection into the hind leg foot pads every 3-4 days until the conclusion of the experiment. Melanoma growth was monitored by orthagonal caliper measurements every 3-4 days between day 15 to day 32.

[3] = system: BMDCs; experiment: DC viability, Annexin V/PI flow cytometry; format: cell-based, murine; settings: BMDCs treated 48 hours
Description: Data is representative of two-independent experiments.

[4] = system: DC IDO; experiment: IDO enzymatic assay (kynurenine HPLC); format: cell-based, mouse
Protocol: DC IDO enzyme activity was measured by the conversion of L-tryptophan to L-kynurenine in conditioned media by HPLC (Pallotta et al., 2011). Intracellular hemin levels were measured using a colorimetric assay kit (BioVision).

[5] = system: murine DCs; experiment: qrt-PCR / ELISA gene and cytokine expression in murine DCs; format: cell-based; settings: BMDCs, qrt-PCR
Protocol: Total RNA was isolated by RNeasy Plus Mini Kit(Qiagen). RNA(500 ng) was used in cDNA Synthesis (iScript, BioRad). Quantification of mRNA for genes involved in PPARγ signaling was performed using Mouse PrimePCR PPAR Array according to the manufacturer's protocol (BioRad). Real-time PCR was performed using an ABI7500 Real-Time PCR system (Life Technologies). Data analysis utilized the PrimePCR Analysis Software (BioRad). Conventional qPCR was performed using validated primers (Table 1) and SsoAdvanced Universal SYBR Green Super mix (BioRad) or Taqman probes (Applied Biosystems) for heme synthesis enzymes.
Murine IL-6 (eBioscience) and IL-12p40 (Becton Dickinson) ELISAs were performed according to manufacture's protocol.

[6] = system: bone marrow-derived DCs (BMDCs); experiment: DC oxygen consumption rate (OCR) / OXPHOS, extracellular flux analysis; format: cell-based, murine; settings: murine DCs pre-treated with Wnt5a vs Wnt5a+ETO
Protocol: (§1) DC energy metabolism was measured using the XF^e24 extracellular flux analyzer (Seahorse Bioscience), with the glycolysis stress test kit and the mitochondrial stress test kit as previously described (Everts et al., 2014; Zhao and Klimecki, 2015).
(§2) Murine bone marrow-derived DCs (BMDCs) were harvested and differentiated as previously described and purified using CD11c microbeads (Miltenyi Biotec) according to manufacturer's protocol. DC purity was monitored by flow cytometry and consistently found to be >95% CD11c+F4/80-. BRAFV600EPTEN−/−-Wnt5aKD and BRAFV600EPTEN−/−-NTC cell lines were generated and cultured as previously described. DC2.4, a murine dendritic cell line was kindly provided by Dr. Kenneth L. Rock (University of Massachusetts Medical School), and cultured as previously described. DC2.4β-cateninKD, DC2.4-CPT1AKD, and DC2.4-NTC stable cell lines were generated using a β-catenin-targeted, CPT1A-targeted, or control shRNA-expressing lentivirus followed by puromycin selection. DCs were treated with Wnt3a (100 ng/mL), Wnt5a (200 ng/mL), LPS (1 μg/mL), 1-MT, 2DG (1 mM), or ETO (100 µM) vs vehicle control either for 24 or 48 hrs prior to their use in both in vitro and in vivo experiments.

[7] = system: BRAFV600EPTEN−/− melanoma; experiment: Syngeneic transplant tumor study; format: in vivo, C57BL/6 mice
Protocol: Mouse IFNγ ELISPOTPLUS (MABTECH) was performed according to manufacture guidelines. Imaging was conducted using a ChemiDoc System (BioRad) and quantified using ImageJ software.
Paraffin-embedded tissues were processed and stained following standard protocols and imaged with a Zeiss CLSM 700 confocal microscope. CD8 (BioLegend) and PD-L1 (Abcam) primary antibodies were utilized where indicated. Warp Red chromogen detection system (BioCare) was used for antigen visualization.
BRAFV600EPTEN−/− cells line were established as previously described. 5×10^5 cells were implanted by subcutaneous injection into syngeneic C57 mice. Tumor growth was monitored by caliper measurement. Etomoxir (Sigma, ETO) was administered daily by oral gavage (25 mg/kg/day). Anti-PD-1 rat mAb or rat IgG2a isotype control (BioXCell) was delivered every 3 days by intraperitoneal injection (250 μg/dose).

[8] = system: BRAFV600EPTEN−/− cells; experiment: Soft agar colony formation assay; format: cell-based, mouse; settings: 15 days in presence or absence of ETO
Protocol: Complete growth media—0.7% agar was overlaid with complete growth media—[…] containing 10,000 cells and additional complete growth media. After 2 weeks, colonies were stained with MTT(Sigma) to identify viable colonies and imaged by a ChemiDoc XRSplus system as previously described. Images were analyzed with NIH ImageJ to enumerate colony number.

[9] = system: DC-induced CD4+ FoxP3+ Tregs; experiment: In vitro Treg assay; format: cell-based, mouse
Protocol: (§3) In vivo Treg assay. DCs (C57, H-2^b) were pre-treated for 48 hours and delivered by intradermal injection into the footpad of Foxp3-mRFP mice. Draining inguinal and popliteal lymph nodes were resected 5 days later and analyzed for CD4^+ Foxp3^+ Tregs. In vitro Treg assay, DCs (Balb/c, H-2^d) were pre-treated for either 24 or 48 hrs, and re-plated at a 1:3 DC:T-cell ratio with purified naïve Foxp3-mRFP(H-2^b) CD4^+ Tcells. These co-cultures were incubated for 6 days and quantitated for CD4^+ FoxP3^+ Tregs by flow cytometry.
as §2

[10] = system: human monocyte-derived DCs; experiment: OCR analysis of human monocyte-derived DCs; format: cell-based; settings: human DCs pre-treated with Wnt5a 48 hours, short-term ETO
Protocol: Human DCs were differentiated from harvested peripheral blood mononuclear cells and pre-treated with Wnt5a 48 hours prior to OCR analysis. Short-term incubation with ETO was performed prior to analysis.
as §1
Human Monocyte-derived Dendritic Cells were generated as previously described.

[11] = system: DC-induced CD4+ Foxp3+ Tregs in draining lymph nodes; experiment: In vivo Treg assay; settings: conditioned primary DCs transferred into footpad of FoxP3-mRFP reporter mice
Protocol: as §3

[12] = system: CPT1a; experiment: CPT1a silencing by shRNA-expressing lentiviral vector (qrt-PCR, Western blot); format: cell-based, mouse
Description: The application includes the sequence listing that is concurrently filed in computer readable form. This sequence listing is incorporated by reference herein.
as §2, with “experiments. […]” for “experiments.”
Total RNA was isolated by RNeasy Plus Mini Kit(Qiagen). […] Quantification of mRNA for genes involved in PPARγ signaling was performed using Mouse PrimePCR PPAR Array according to the manufacturer's protocol (BioRad). […]

[13] = DCs pretreated with Wnt5a+/−ETO

Row | Compound | DC-mediated antigen-specific CD8+ T cell proliferation [1] | Tregs within draining LN tissues [2, 13] | melanoma-infiltrating CD8+ T cells [2, 13] | primary melanoma progression ([2]; DCs pretreated with Wnt5a+/−ETO transferred to foot pads) | DC viability [3] | TIDC IDO enzyme activity (kynurenine) ([4]; TIDCs purified from BRAFV600E-PTEN−/−-NTC tumors) | DC IDO enzymatic activity (kynurenine) ([4]; purified DC cultures, Wnt5a or Wnt5a+ETO) | IL-6 and IL-12 expression in primary DCs [5] | Wnt5a-induced DC OXPHOS / mitochondrial respiration (OCR) [6] | primary melanoma growth, ETO combined with anti-PD-1 antibody ([7]; ETO 25 mg/kg/day oral gavage plus anti-PD-1 250 μg/dose i.p. every 3 days) | primary melanoma progression, monotherapy ([7]; ETO 25 mg/kg/day oral gavage, anti-PD-1 250 μg/dose i.p. every 3 days) | intrinsic proliferative capacity of tumor cells (soft agar colonies) [8] | DC-mediated Treg differentiation in vitro, IDO−/− DCs ([9]; DCs derived from IDO−/− mice +/−ETO) | DC-mediated Treg differentiation in vitro ([9]; pre-treated DCs co-cultured with naïve CD4+ T cells) | Wnt5a-induced DC mitochondrial respiration (OCR) [10] | DC-mediated Treg differentiation in vivo [11] | silencing of mouse CPT1a expression [12]
1 | CCOC(=O)[C@@]1(CCCCCCOc2ccc(Cl)cc2)CO1 [ETO, etomoxir] | significantly augment in vitro DC-dependent T cell proliferation to levels similar to that of LPS stimulation; also recorded: potently induce DC-mediated T cell activation to levels similar to those seen in response to LPS-treatment of DCs; also recorded: enhances the ability of DCs to induce OT-1 T cell proliferation | suppression of Tregs within draining LN tissues | enhanced numbers of melanoma-infiltrating CD8+ T cells | potently suppress primary melanoma progression | does not impair DC viability; also recorded: not impacting DC viability | lower levels of IDO enzyme activity | completely eliminated this effect; also recorded: reverses Wnt5a-stimulation of DC IDO enzymatic activity | alterations in cytokine expression were further recapitulated | ablate Wnt5a-induced DC OXPHOS; also recorded: completely ablate Wnt5a induction of both murine and human DC mitochondrial respiration; also recorded: abrogates Wnt5a-induced DC OXPHOS | significantly enhanced the anti-tumor efficacy of the anti-PD-1 antibody; also recorded: augments anti-PD-1 antibody suppression | suppresses the progression of BRAF^V600E-PTEN^−/− melanoma similar to anti-PD-1 antibody monotherapy | has no impact on the intrinsic proliferative capacity of this tumor model | dramatically suppress the ability of IDO^−/− DCs to drive Treg differentiation; also recorded: inhibition of DC-mediated Treg generation extends beyond IDO activity | ablate; also recorded: potently suppress the ability of Wnt5a-conditioned DCs to drive Treg differentiation; also recorded: inhibits Wnt5a-conditioning of DC-mediated Treg development in vitro | completely ablate Wnt5a induction of both murine and human DC mitochondrial respiration | ablate; also recorded: potently suppress the ability of Wnt5a-conditioned DCs to drive Treg differentiation; also recorded: inhibits Wnt5a-conditioning of DC-mediated Treg development in vivo | –
2 | SEQ ID NO:1: shRNA sequence for silencing mouse CPT1a (guide CCGGGCTATGGTGTTTCCTACATTACTCGAGTAATGTAGGAAACACCATAGCTTTTTG) | – | – | – | – | – | – | – | – | – | – | – | – | – | – | – | – | effective for silencing the expression of mouse CPT1a
